Like-named read-outs stand apart in the source and are kept apart here.
Assays:
HTR3A = biological target: T1, HTR3A (Homo sapiens, UniProt P46098); assay: SAFETYscan Ion Channel HTR3A Opener; assay type: cell-based
T1 sequence (P46098 24-478): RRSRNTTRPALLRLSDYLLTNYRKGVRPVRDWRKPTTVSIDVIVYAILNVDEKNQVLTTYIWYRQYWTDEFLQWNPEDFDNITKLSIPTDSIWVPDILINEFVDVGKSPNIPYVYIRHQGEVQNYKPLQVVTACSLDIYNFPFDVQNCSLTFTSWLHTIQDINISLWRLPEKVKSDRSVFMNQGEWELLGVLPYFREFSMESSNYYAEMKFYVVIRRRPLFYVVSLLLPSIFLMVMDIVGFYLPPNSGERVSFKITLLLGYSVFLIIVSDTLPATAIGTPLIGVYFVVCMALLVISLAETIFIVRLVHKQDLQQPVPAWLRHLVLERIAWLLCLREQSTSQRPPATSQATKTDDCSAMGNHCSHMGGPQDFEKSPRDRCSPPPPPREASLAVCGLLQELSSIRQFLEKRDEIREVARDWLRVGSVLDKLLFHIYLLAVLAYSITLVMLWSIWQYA
Source text: (§1) Supplement jm3c00155_si_002.xlsx, sheet "SAFETYScan" | column: RC50 (uM); Max Response

MAOA = MAOA (Homo sapiens, UniProt P21397); assay: SAFETYscan Enzymatic MAOA Inhibitor; assay type: biochemical
Source text: as §1

OPRK1 = OPRK1 (Homo sapiens, UniProt P41145); assay: SAFETYscan cAMP OPRK1 Agonist; assay type: cell-based
Source text: as §1

kinase panel (468) = kinase panel (468) (Homo sapiens, UniProt P00519, H396P); assay: KINOMEscan scanMAX kinase panel (468); assay type: binding
ADORA2A = ADORA2A (Homo sapiens, UniProt P29274); assay: SAFETYscan Calcium Flux ADORA2A Agonist; assay type: cell-based
Sequence of ADORA2A (P29274 whole entry): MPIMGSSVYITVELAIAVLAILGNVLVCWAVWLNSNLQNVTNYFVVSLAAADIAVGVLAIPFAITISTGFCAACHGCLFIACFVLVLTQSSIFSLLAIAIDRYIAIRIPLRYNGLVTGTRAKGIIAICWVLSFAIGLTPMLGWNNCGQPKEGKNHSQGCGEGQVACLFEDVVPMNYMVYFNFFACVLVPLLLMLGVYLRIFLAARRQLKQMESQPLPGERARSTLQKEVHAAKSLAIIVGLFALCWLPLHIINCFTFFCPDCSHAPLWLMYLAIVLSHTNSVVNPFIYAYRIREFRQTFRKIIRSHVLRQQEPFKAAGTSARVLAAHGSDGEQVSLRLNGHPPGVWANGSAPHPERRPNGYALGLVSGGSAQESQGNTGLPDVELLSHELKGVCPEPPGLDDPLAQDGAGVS
Source text: as §1

ADRA2A = biological target: T2, ADRA2A (Homo sapiens, UniProt P08913); assay: SAFETYscan cAMP ADRA2A Agonist; assay type: cell-based
T2 sequence (P08913 1-465): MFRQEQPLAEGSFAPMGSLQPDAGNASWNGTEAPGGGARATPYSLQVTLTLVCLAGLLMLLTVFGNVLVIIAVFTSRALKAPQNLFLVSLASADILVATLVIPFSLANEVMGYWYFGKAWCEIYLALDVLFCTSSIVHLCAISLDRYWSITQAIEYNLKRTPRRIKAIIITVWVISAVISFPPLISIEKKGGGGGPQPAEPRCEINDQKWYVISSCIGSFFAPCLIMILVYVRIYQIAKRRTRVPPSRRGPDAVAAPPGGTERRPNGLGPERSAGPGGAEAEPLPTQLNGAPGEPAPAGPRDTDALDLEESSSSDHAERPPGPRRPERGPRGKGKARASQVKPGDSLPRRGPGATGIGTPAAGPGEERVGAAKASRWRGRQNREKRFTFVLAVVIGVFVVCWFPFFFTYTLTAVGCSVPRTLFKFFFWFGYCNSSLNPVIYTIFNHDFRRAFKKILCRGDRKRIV
Source text: as §1

CAV1.2 = CAV1.2 (Homo sapiens, UniProt Q13936); assay: in vitro; assay type: cell-based
Source text: as §1

VEGFR2 = VEGFR2 (Homo sapiens, UniProt P35968); assay: SAFETYscan Kinases Binding VEGFR2 Inhibitor
Sequence of VEGFR2 (P35968 20-1356): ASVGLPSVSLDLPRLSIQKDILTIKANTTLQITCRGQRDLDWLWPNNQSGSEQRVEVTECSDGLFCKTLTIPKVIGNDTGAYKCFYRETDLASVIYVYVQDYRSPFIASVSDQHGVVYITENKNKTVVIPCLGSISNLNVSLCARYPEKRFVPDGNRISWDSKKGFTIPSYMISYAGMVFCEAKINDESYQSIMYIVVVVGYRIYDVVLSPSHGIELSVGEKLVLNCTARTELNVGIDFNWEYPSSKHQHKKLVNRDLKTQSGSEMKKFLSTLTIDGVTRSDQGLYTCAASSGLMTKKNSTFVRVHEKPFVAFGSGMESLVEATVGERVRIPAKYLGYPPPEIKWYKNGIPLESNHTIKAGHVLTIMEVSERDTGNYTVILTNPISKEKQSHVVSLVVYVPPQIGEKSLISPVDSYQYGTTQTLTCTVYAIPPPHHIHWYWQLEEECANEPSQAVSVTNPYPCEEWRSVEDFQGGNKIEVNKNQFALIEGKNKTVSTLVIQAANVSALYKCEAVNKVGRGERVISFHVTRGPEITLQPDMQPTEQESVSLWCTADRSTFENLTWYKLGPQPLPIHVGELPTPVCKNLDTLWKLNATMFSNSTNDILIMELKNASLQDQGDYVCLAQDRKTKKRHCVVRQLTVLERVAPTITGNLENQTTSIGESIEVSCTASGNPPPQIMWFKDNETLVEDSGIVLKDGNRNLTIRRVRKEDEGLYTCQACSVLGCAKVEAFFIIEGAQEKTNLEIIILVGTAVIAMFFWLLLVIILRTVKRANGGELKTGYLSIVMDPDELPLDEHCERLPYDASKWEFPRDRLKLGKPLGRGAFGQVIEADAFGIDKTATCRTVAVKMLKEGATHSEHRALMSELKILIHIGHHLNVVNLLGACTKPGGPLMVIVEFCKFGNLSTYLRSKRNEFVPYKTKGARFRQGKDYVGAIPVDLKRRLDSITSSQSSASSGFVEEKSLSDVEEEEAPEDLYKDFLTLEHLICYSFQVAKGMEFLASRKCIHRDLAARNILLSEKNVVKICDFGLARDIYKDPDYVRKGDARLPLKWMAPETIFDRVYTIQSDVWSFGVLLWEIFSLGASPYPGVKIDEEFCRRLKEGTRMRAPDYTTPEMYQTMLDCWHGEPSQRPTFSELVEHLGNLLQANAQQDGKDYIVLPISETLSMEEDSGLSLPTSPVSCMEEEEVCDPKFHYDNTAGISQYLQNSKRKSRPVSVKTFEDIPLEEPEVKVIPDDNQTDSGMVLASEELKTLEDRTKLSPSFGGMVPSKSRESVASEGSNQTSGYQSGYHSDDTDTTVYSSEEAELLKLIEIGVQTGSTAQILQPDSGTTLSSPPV
Source text: as §1

NAV1.5 = NAV1.5 (Homo sapiens, UniProt Q14524); assay: SAFETYscan Ion Channel NAV1.5 Blocker; assay type: cell-based
Sequence of NAV1.5 (Q14524 whole entry): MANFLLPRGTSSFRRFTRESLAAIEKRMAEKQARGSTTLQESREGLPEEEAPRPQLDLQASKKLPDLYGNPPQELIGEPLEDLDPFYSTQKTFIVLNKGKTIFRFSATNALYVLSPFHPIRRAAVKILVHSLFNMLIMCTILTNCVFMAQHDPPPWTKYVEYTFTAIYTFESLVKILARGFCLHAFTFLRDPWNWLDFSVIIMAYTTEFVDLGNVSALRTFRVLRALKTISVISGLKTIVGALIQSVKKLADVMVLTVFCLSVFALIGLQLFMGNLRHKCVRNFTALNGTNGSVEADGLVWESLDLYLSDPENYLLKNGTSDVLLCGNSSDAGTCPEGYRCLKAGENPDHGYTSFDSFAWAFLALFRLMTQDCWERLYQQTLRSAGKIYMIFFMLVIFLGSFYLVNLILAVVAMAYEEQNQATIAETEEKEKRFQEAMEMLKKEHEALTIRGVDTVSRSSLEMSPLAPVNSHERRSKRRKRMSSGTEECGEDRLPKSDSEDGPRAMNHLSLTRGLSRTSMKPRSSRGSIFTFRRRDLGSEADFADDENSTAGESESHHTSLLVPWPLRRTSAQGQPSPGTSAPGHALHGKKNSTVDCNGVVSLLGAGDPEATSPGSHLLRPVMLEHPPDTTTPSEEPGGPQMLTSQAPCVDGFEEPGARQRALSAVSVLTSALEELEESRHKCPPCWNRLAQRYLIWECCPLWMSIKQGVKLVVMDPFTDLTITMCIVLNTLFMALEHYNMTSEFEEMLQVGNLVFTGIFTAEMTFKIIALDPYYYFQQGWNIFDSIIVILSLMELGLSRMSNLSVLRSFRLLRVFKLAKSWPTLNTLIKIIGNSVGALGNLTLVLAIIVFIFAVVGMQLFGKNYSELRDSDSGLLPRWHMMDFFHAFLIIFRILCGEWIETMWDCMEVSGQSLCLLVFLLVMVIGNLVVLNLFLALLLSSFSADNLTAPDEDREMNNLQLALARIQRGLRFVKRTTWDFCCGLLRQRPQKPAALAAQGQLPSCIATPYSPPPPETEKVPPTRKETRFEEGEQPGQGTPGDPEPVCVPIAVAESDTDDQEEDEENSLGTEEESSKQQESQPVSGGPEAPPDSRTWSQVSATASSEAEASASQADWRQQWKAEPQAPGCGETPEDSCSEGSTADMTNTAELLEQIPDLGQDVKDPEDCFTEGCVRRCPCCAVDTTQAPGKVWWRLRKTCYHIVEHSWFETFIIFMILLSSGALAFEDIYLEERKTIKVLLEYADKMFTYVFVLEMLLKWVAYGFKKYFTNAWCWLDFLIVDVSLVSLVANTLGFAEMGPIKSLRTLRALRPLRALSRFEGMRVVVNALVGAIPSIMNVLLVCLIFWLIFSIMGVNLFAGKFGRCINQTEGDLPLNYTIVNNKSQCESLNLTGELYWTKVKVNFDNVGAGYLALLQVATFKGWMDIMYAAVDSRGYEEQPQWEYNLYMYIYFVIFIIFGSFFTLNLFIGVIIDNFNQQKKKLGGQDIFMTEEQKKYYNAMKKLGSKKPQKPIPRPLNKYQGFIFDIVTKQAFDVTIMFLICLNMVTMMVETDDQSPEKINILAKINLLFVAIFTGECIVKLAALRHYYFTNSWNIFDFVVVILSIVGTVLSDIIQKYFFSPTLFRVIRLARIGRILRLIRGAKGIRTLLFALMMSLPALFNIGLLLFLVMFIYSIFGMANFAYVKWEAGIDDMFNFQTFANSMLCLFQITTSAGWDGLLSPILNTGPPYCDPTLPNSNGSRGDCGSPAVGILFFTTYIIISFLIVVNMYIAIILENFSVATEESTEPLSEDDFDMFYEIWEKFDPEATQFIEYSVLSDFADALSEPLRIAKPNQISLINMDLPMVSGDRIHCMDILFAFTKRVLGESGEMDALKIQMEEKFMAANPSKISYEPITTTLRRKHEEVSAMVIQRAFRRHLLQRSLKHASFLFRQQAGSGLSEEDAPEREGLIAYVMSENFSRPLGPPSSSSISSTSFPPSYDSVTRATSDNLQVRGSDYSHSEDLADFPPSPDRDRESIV
Source text: as §1

NMDAR (1A/2B) = NMDAR (1A/2B) (Homo sapiens, UniProt Q05586+Q13224); assay: SAFETYscan Ion Channel NMDAR (1A/2B) Opener; assay type: cell-based
Source text: as §1

human BCL6 BTB domain = human BCL6 BTB domain (Homo sapiens, UniProt P41182); assay: BCL6 TR-FRET assay; assay type: binding
Method: 1. Supplementary experimental: protein production, purification and crystallography 1.1 BCL6 constructs used for assays and crystallography […]
cleavage site. For the TR-FRET assay, the Trx-6His-HRV3C-BCL6 protein construct was used without cleaving the tag, as a 6His was needed to bind to the anti-6His-Terbium antibody. […]
For both plasmid constructs described above, transformed BL21-AI E. coli cells were grown in LB media […]
Expression was carried out at 18 °C for 18 hours. Cells were harvested by centrifugation (5500 g for 30 minutes at 4 °C) and stored at -80 °C.
Cells were re-suspended in a buffer composed of 20 mM Tris pH 8, 250 mM NaCl, 1 mM MgCl2, 0.5 mM […]
lysed by sonication followed by centrifugation at 21,000 g for 45 minutes at 4 °C. […]
ResourceQ and gel filtration using a HiLoad 26/60 Superdex75 column in a buffer containing 20 mM HEPES […]
The final protein was assessed for purity and molar mass by SDS-PAGE and high-resolution mass spectrometry, respectively.
For the uncleaved Trx-6His-HRV3C-BCL6 protein construct to be used in TR-FRET, the protein was directly eluted from the HisTrap FF column without HRV-3C treatment, and submitted to Superdex75 gel filtration […]
Test compounds in DMSO or DMSO alone […]
concentration in 0.7% v/v DMSO final. […]

PDE4D2 = PDE4D2 (Homo sapiens, UniProt Q08499); assay: SAFETYscan Enzymatic PDE4D2 Inhibitor; assay type: biochemical
Sequence of PDE4D2 (Q08499 303-809 limits assumed): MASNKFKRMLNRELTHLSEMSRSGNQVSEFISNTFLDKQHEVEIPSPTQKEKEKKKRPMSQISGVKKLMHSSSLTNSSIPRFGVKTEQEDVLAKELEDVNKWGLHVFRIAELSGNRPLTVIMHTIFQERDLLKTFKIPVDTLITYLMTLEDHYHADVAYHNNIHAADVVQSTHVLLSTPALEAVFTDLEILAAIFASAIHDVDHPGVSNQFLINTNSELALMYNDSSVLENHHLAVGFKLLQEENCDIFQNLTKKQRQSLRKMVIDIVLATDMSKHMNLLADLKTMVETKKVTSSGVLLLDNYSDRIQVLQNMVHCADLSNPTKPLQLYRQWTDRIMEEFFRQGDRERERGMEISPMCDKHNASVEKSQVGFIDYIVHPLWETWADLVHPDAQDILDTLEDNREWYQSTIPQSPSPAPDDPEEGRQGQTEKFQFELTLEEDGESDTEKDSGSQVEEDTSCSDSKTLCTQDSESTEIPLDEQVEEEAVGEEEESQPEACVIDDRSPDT
Source text: as §1

OPRM1 = OPRM1 (Homo sapiens, UniProt P35372); assay: SAFETYscan cAMP OPRM1 Agonist; assay type: cell-based
Source text: as §1

DRD1 = DRD1 (Homo sapiens, UniProt P21728); assay: SAFETYscan cAMP DRD1 Antagonist; assay type: cell-based
Sequence of DRD1 (P21728 whole entry): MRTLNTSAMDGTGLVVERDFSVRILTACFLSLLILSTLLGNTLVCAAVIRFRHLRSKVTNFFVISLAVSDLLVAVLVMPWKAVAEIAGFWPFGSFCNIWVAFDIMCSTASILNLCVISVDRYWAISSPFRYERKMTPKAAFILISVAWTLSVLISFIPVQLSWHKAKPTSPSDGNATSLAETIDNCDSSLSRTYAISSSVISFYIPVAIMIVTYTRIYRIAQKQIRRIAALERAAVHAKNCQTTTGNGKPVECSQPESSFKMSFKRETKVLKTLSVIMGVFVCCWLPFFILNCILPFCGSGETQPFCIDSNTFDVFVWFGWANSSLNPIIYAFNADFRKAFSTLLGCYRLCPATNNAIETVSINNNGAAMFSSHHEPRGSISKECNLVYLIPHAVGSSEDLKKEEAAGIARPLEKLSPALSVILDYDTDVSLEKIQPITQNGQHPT
Source text: Supplement jm3c00155_si_002.xlsx, sheet "SAFETYScan" | column: RC50 (uM); Hill; Max Response

GABAA = GABAA (Homo sapiens, UniProt P14867+P18507+P47870); assay: SAFETYscan Ion Channel GABAA Opener; assay type: cell-based
Source text: as §1

AChE = AChE (Homo sapiens, UniProt P22303); assay: SAFETYscan Enzymatic AChE Inhibitor; assay type: biochemical
Source text: as §1

HRH2 = HRH2 (Homo sapiens, UniProt P25021); assay: SAFETYscan cAMP HRH2 Agonist; assay type: cell-based
Sequence of HRH2 (P25021 whole entry): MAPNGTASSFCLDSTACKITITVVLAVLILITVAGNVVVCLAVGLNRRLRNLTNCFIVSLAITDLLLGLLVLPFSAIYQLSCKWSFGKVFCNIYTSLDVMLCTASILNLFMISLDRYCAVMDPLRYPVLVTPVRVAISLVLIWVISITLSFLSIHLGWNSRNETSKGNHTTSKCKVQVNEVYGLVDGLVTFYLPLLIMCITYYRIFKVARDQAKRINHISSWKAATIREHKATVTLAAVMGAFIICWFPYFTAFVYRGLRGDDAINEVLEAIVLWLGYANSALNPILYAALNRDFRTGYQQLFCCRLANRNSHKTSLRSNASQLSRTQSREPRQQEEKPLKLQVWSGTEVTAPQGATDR
Source text: as §1

Cn1c(=O)c2c(c3cc(Nc4ccnc(F)c4Cl)ccc31)N[C@@H](C1CC1)C(F)(F)CO2 [compound 17, (S)-10-((3-chloro-2-fluoropyridin-4-yl)amino)-2-cyclopropyl-3,3-difluoro-7-methyl-1,2,3,4-tetrahydro-[1,4]oxazepino[2,3-c]quinolin-6(7H)-one]
EC50 (HTR3A): > 10 µM | Emax (HTR3A; HTR3A, Ion Channel, Opener, read-out: Max Response): 0% | Emax (MAOA; read-out: Max Response): 0% | IC50 (MAOA; read-out: RC50 (IC50)): > 10 µM | EC50 (OPRK1): > 10 µM | Emax (OPRK1; OPRK1, cAMP, Agonist, read-out: Max Response): 21.1% | Percent Control (kinase panel (468)): 84% | Emax (ADORA2A; read-out: Max Response): 0% | EC50 (ADORA2A; read-out: RC50 (EC50)): > 10 µM | EC50 (ADRA2A): > 10 µM | Emax (ADRA2A; ADRA2A, cAMP, Agonist, read-out: Max Response): 38.9% | Emax (CAV1.2): 0% | IC50 (CAV1.2): > 10 µM | Emax (VEGFR2; read-out: Max Response): 0% | IC50 (VEGFR2; read-out: RC50 (IC50)): > 10 µM | IC50 (NAV1.5): > 10 µM | Emax (NAV1.5; NAV1.5, Ion Channel, Blocker, read-out: Max Response): 2.06% | EC50 (NMDAR (1A/2B)): > 10 µM | Emax (NMDAR (1A/2B); NMDAR (1A/2B), Ion Channel, Opener, read-out: Max Response): 0.2% | BCL6 TR-FRET pIC50 mean (human BCL6 BTB domain; Table S1): 8.2095 | IC90 (human BCL6 BTB domain; Table S1, read-out: BCL6 TR-FRET IC90 Geometric Mean): 0.0567 µM | IC50 (human BCL6 BTB domain; geometric mean of at least three replicates, read-out: BCL6 TR-FRET IC50): 0.006 µM | IC50 (human BCL6 BTB domain; supplement, read-out: BCL6 TR-FRET IC50 Geometric Mean): 0.0062 µM | Emax (PDE4D2; read-out: Max Response): 15% | IC50 (PDE4D2; read-out: RC50 (IC50)): > 10 µM | EC50 (OPRM1): > 10 µM | Emax (OPRM1; OPRM1, cAMP, Agonist, read-out: Max Response): 13.3% | IC50 (DRD1): 2.58 µM | Hill (DRD1; DRD1, cAMP, Antagonist): 1.27 | Emax (DRD1; DRD1, cAMP, Antagonist, read-out: Max Response): 82.7% | EC50 (GABAA): > 10 µM | Emax (GABAA; GABAA, Ion Channel, Opener, read-out: Max Response): 1.24% | Emax (AChE; read-out: Max Response): 9.89% | IC50 (AChE; read-out: RC50 (IC50)): > 10 µM | Emax (HRH2; read-out: Max Response): 0% | EC50 (HRH2; read-out: RC50 (EC50)): > 10 µM

Reference: PMC10150366, “Discovery of an In Vivo Chemical Probe for BCL6 Inhibition by Optimization of Tricyclic Quinolinones” (Journal of Medicinal Chemistry, 2023)
